Measured values published in US9926284B2, “Substituted N-(1,2,4-triazol-3-yl)Arylcarboxamide compounds and their use as herbicides” (BASF SE, priority 2013, dated 2018).
Marks after values point to notes of the source that are not given here.

Legend:
Format in all cases: in vivo
Abutilon theophrasti [1] = assay: greenhouse post-emergence treatment, herbicidal activity; settings: 1000 g/ha, scale 0 to 100
Excerpt: (§1) The seeds of the test plants were sown separately for each species. For the post-emergence treatment, the test plants were first grown to a height of 3 to 15 cm, depending on the plant habit, and only then treated with the active ingredients which had been suspended or emulsified in water. For this purpose, the test plants were either sown directly and grown in the same containers, or they were first grown separately as seedlings and transplanted into the test containers a few days prior to treatment. Depending on the species, the plants were kept at 10-25° C. or 20-35° C. The test period extended over 2 to 4 weeks. During this time, the plants were tended, and their response to the individual treatments was evaluated. Evaluation was carried out using a scale from 0 to 100. 100 means no emergence of the plants, or complete destruction of at least the aerial moieties, and 0 means no damage, or normal course of growth. A good herbicidal activity is given at values of at least 70 and a very good herbicidal activity is given at values of at least 85. The plants used in the greenhouse experiments belonged to the following species: [table]

Amaranthus retroflexus [2] = assay: as above; settings: 1000 g/ha, scale 0 to 100
Excerpt: as §1

Avena fatua = assay: as above; settings: 1000 g/ha, scale 0 to 100
Excerpt: as §1

Echinochloa crus-galli [3] = assay: as above; settings: 1000 g/ha, scale 0 to 100
Excerpt: as §1

Setaria viridis = assay: as above; settings: 1000 g/ha, scale 0 to 100
Excerpt: as §1

Agrostis spica-venti = assay: greenhouse pre-emergence treatment, herbicidal activity; settings: pre-emergence (values labeled *), 1000 g/ha, scale 0 to 100
Excerpt: (§2) The seeds of the test plants were sown separately for each species. For the pre-emergence treatment, the active ingredients, which had been suspended or emulsified in water, were applied directly after sowing by means of finely distributing nozzles. The containers were irrigated gently to promote germination and growth and subsequently covered with transparent plastic hoods until the plants had rooted. This cover caused uniform germination of the test plants, unless this has been impaired by the active ingredients. Depending on the species, the plants were kept at 10-25° C. or 20-35° C. The test period extended over 2 to 4 weeks. During this time, the plants were tended, and their response to the individual treatments was evaluated. Evaluation was carried out using a scale from 0 to 100. 100 means no emergence of the plants, or complete destruction of at least the aerial moieties, and 0 means no damage, or normal course of growth. A good herbicidal activity is given at values of at least 70 and a very good herbicidal activity is given at values of at least 85. The plants used in the greenhouse experiments belonged to the following species: [table]

Amaranthus retroflexus [4] = assay: as above; settings: pre-emergence (values labeled *), 1000 g/ha, scale 0 to 100
Excerpt: as §2

Echinochloa crus-galli [5] = assay: as above; settings: pre-emergence (values labeled *), 1000 g/ha, scale 0 to 100
Excerpt: as §2

Setaria faberi = assay: as above; settings: pre-emergence (values labeled *), 1000 g/ha, scale 0 to 100
Excerpt: as §2

Abutilon theophrasti [6] = assay: as above; settings: pre-emergence (values labeled *), 1000 g/ha, scale 0 to 100
Excerpt: as §2

Alopecurus agrestis = assay: greenhouse post-emergence treatment, herbicidal activity; settings: 1000 g/ha, scale 0 to 100
Excerpt: as §1

SMILES | damage [%] in weed species I (ABUTH) (Abutilon theophrasti [1]) [%] | damage [%] in weed species III (AMARE) (Amaranthus retroflexus [2]) | damage [%] in weed species V (AVEFA) (Avena fatua) [%] | damage [%] in weed species VI (ECHCG) (Echinochloa crus-galli [3]) [%] | damage [%] in weed species VIII (SETVI) (Setaria viridis) [%] | damage [%] in weed species IV (APESV) (Agrostis spica-venti) | damage [%] in weed species III (AMARE) (Amaranthus retroflexus [4]) | damage [%] in weed species VI (ECHCG) (Echinochloa crus-galli [5]) [%] | damage [%] in weed species VII (SETFA) (Setaria faberi) | damage [%] in weed species I (ABUTH) (Abutilon theophrasti [6]) [%] | damage [%] in weed species II (ALOMY) (Alopecurus agrestis) [%]
CCn1cnnc1NC(=O)c1c(F)cc(Cl)c(S(C)(=O)=O)c1Cl [cpd. 2, 2,4-dichloro-N-(4-ethyl-1,2,4-triazol-3-yl)-6-fluoro-3-methyl-sulfonyl-benzamide] | 100 | 75% | 75 | 90 | 100 | 80* % | 95% | 98 | 85* % | – | –
CCn1cnnc1NC(=O)c1c(F)cc(Cl)c(SC)c1Cl [cpd. 3, 2,4-dichloro-N-(4-ethyl-1,2,4-triazol-3-yl)-6-fluoro-3 methyl-sulfanyl-benzamide] | 100 | 100% | 80 | 98 | 100 | – | 90% | 75 | 70* % | 90 | –
CSc1c(Cl)cc(F)c(C(=O)Nc2nncn2C)c1Cl [cpd. 4, 2,4-dichloro-6-fluoro-3-methylsulfanyl-N-(4-methyl-1,2,4-triazol-3-yl)benzamide] | 100 | 100, 100* % | 90 | 95 | 100 | 70* % | 100, 100* % | – | 70* % | 70 | 90
Cn1cnnc1NC(=O)c1c(F)cc(Cl)c(S(C)(=O)=O)c1Cl [cpd. 5, 2,4-dichloro-6-fluoro-3-methylsulfonyl-N-(4-methyl-1,2,4-triazol-3-yl)benzamide] | 98 | 90% | – | 98 | 95 | 70* % | 85% | 80 | 85* % | 80 | 85
